Assays:
Format in all cases: biochemical
Details in all cases: for inhibition at 100 µM: compound 100 µM; for IC50: mean ± SEM of three independent experiments
m-NTPDase1 = molecular target: T1, m-NTPDase1 (Mus musculus, UniProt P55772); assay: m-NTPDase1 inhibition, malachite green assay
T1 construct: made in house; host or cells: COS-7 cells, transient transfection; crude protein extract after sonication
T1 sequence (P55772 1-510): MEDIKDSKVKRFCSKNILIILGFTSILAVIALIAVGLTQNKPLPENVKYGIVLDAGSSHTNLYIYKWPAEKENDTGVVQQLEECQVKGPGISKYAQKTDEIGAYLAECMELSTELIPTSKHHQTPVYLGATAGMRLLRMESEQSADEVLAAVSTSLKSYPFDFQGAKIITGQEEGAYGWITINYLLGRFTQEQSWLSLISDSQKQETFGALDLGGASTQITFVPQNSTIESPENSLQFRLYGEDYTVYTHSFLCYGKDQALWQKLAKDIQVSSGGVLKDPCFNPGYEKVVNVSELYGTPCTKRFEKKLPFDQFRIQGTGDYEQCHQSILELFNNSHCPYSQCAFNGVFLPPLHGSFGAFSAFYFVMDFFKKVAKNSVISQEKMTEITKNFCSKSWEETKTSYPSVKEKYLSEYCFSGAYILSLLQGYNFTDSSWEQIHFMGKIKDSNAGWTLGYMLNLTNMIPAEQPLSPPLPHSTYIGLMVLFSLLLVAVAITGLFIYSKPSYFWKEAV
Procedure: (§1) COS-7 cells were transfected with plasmids expressing human or mouse NTPDases1, -2, -3, and -8 as previously described ([Levesque et al., 2007]; [Lecka et al., 2014]) Briefly, the confluent cells were transferred to Dulbecco’s Modified Eagle’s Medium containing no fetal bovine serum. Then, these cells were incubated with plasmid DNA (6 µg) and Lipofectamine reagent (24 µl) at 37°C. After 5 h, transfection was terminated with the addition of an equal volume of DMEM/F-12 (supplemented with 20% FBS) and cells were collected by harvesting after 40–72 h.
(§2) To prepare protein extracts, transfected COS-7 cells were washed three times with tris-saline buffer while temperature was maintained at 4°C. Then cells were scraped and resuspended in harvesting buffer containing 95 mM NaCl, 45 mM tris and 0.1 mM phenylmethylsulfonyl fluoride (pH 7.5). Cells were again washed twice by centrifugation for 5 min at 300 × g at 4°C and then resuspended in harvesting buffer (supplemented with 10 μg ml aprotinin). Following sonication, cellular debris was isolated by 10 min centrifugation at 300 g at 4°C. Subsequently, supernatant was removed very carefully and protein concentration was determined by using Bradford microplate assay while using the bovine serum albumin as a standard ([Bradford, 1976]).
(§3) The inhibitory effects of synthesized compounds on h-NTPDase1, -2, -3, and -8 were determined as described previously, although with slight modifications ([Martín-Satué et al., 2009]). Assay was conducted in a reaction medium containing 50 mM tris-HCl and 5 mM CaCl2 (pH 7.4). All the test compounds were dissolved in dimethyl sulfoxide (DMSO, 10%) and initially screened at a concentration of 100 µM. A reaction mixture containing 55 µl of assay buffer, 10 µl of test compound solution and 10 µl of h-NTPDase1 (58 ng/well) or h-NTPDase2 (79 ng/well) or h-NTPDase3 (163 ng/well) or h-NTPDase8 (66 ng/well) was incubated at 37°C for 10 min. Following the incubation, a 10 µl solution of adenosine triphosphate (ATP, 100 µm) was added as substrate and reaction mixture was again incubated for 15 min at 37°C. The reaction was stopped by adding malachite green reagent (15 µl) and placed at room temperature for 4 to 6 min. Finally, absorbance was measured at 630 nm by using Omega FLUOstar microplate reader (BMG Labtech, Ortenberg, Germany) and % inhibitions were calculated. For compounds showing more than 50% inhibition of any isozyme, dose response curves were generated and their IC50 values were determined. Three separate enzyme inhibition assays were carried out in triplicate and dose-response curve were generated by using PRISM 5.0 (GraphPad, San Diego, United States).
(§4) Same procedure was adopted to determine the inhibitory effects of compounds on mouse NTPDases (m-NTPDases). However, the amount of protein used was as follows: m-NTPDase1 (82 ng/well), m-NTPDase2 (57 ng/well), m-NTPDase3 (110 ng/well) and m-NTPDase8 (79 ng/well)

m-NTPDase2 = molecular target: T2, m-NTPDase2 (Mus musculus, UniProt O55026); assay: m-NTPDase2 inhibition, malachite green assay
T2 construct: made in house; host or cells: COS-7 cells, transient transfection; crude protein extract after sonication
T2 sequence (O55026 1-495): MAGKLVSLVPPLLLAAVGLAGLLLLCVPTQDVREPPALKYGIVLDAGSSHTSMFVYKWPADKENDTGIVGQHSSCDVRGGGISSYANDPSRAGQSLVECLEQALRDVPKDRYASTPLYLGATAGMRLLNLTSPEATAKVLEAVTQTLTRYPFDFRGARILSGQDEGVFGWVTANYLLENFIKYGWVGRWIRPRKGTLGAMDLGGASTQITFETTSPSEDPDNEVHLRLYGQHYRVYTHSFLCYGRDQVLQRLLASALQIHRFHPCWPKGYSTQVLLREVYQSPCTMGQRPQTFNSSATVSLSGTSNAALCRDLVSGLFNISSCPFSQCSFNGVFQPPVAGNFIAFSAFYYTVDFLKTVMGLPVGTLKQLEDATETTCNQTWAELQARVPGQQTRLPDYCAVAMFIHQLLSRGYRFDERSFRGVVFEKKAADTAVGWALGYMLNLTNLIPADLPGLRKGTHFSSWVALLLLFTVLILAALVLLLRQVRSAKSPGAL
Procedure: as §1, §2, §3, §4

m-NTPDase3 = molecular target: T3, m-NTPDase3 (Mus musculus, UniProt Q8BFW6); assay: m-NTPDase3 inhibition, malachite green assay
T3 construct: made in house; host or cells: COS-7 cells, transient transfection; crude protein extract after sonication
T3 sequence (Q8BFW6 1-529): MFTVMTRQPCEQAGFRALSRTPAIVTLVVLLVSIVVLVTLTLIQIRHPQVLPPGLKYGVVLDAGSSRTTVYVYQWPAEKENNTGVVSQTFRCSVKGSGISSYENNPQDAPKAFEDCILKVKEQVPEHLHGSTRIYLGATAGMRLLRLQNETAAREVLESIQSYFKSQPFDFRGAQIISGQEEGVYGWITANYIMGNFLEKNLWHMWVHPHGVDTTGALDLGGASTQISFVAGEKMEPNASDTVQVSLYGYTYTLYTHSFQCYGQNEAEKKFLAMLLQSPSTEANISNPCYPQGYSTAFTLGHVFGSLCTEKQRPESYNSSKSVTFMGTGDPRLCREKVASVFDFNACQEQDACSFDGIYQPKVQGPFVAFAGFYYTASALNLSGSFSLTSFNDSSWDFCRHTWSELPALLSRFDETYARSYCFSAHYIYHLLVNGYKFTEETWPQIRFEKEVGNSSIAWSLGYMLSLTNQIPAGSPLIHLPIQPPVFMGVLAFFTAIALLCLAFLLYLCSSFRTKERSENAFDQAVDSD
Procedure: as §1, §2, §3, §4

Compound | inhibition at 100 µM (m-NTPDase1) [%] | inhibition at 100 µM (m-NTPDase2) [%] | inhibition at 100 µM (m-NTPDase3) [%] | Ki (m-NTPDase1) [µM] | IC50 (m-NTPDase1) [µM] | Ki (m-NTPDase3) [µM] | IC50 (m-NTPDase3) [µM] | Ki (m-NTPDase2) [µM] | IC50 (m-NTPDase2) [µM]
O=C1Nc2ccccc2/C1=N/NC(=S)Nc1ccc([N+](=O)[O-])cc1 [8b, (Z)-N-(4-nitrophenyl)-2-(2-oxoindolin-3-ylidene)hydrazine-1-carbothioamide] | 14 | 31 | 28 | – | – | – | – | – | –
O=C1Nc2ccccc2/C1=N/NC(=S)Nc1ccc(Cl)cc1 [8c, (Z)-N-(4-chlorophenyl)-2-(2-oxoindolin-3-ylidene)hydrazine-1-carbothioamide] | 28 | 36 | – | – | – | – | – | – | –
O=C1Nc2ccccc2/C1=N/NC(=S)Nc1ccc(F)cc1 [8d, (Z)-N-(4-fluorophenyl)-2-(2-oxoindolin-3-ylidene)hydrazine-1-carbothioamide] | 41 | 27 | 29 | – | – | – | – | – | –
COc1cccc(NC(=S)N/N=C2\C(=O)Nc3ccccc32)c1 [8e, (Z)-N-(3-methoxyphenyl)-2-(2-oxoindolin-3-ylidene)hydrazine-1-carbothioamide] | – | 29 | – | 0.006 | 0.6 ± 0.03 | 0.07 | 0.7 ± 0.05 | – | –
O=C1Nc2ccccc2/C1=N/NC(=S)Nc1cccc(Cl)c1 [8g, (Z)-N-(3-chlorophenyl)-2-(2-oxoindolin-3-ylidene)hydrazine-1-carbothioamide] | 48 | 36 | 27 | – | – | – | – | – | –
Cc1cccc(C)c1NC(=S)N/N=C1\C(=O)Nc2ccccc21 [8i, (Z)-N-(2,6-dimethylphenyl)-2-(2-oxoindolin-3-ylidene)hydrazine-1-carbothioamide] | 20 | – | 32 | – | – | – | – | 0.04 | 0.15 ± 0.01
COc1ccc(OC)c(NC(=S)N/N=C2\C(=O)Nc3ccccc32)c1 [8j, (Z)-N-(2,5-dimethoxyphenyl)-2-(2-oxoindolin-3-ylidene)hydrazine-1-carbothioamide] | 24 | 27 | 30 | – | – | – | – | – | –
COc1ccc(NC(=S)NNC2=c3ccccc3=NC2=O)cc1 [8k, (Z)-N-(4-methoxyphenyl)-2-(2-oxoindolin-3-ylidene)hydrazine-1-carbothioamide] | 42 | 29 | 36 | – | – | – | – | – | –
O=C1Nc2ccccc2/C1=N/NC(=S)Nc1c(F)cccc1F [8l, (Z)-N-(2,6-difluorophenyl)-2-(2-oxoindolin-3-ylidene)hydrazine-1-carbothioamide] | – | – | – | 0.03 | 3.22 ± 0.19 | 0.03 | 0.32 ± 0.04 | 0.05 | 0.2 ± 0.01
Cc1ccc(C(=O)Nc2ccc(S(=O)(=O)O)c3cc(S(=O)(=O)O)cc(S(=O)(=O)O)c23)cc1NC(=O)c1cccc(NC(=O)Nc2cccc(C(=O)Nc3cc(C(=O)Nc4ccc(S(=O)(=O)O)c5cc(S(=O)(=O)O)cc(S(=O)(=O)O)c45)ccc3C)c2)c1 [Suramin, reference compound] | – | – | – | – | > 100 | 3.07 | 31 ± 2 | 5.67 | 21 ± 2

The next lines start with the values.

inhibition at 100 µM (m-NTPDase1) [%] | inhibition at 100 µM (m-NTPDase2) [%] | inhibition at 100 µM (m-NTPDase3) [%] | Ki (m-NTPDase1) [µM] | IC50 (m-NTPDase1) [µM] | Ki (m-NTPDase3) [µM] | IC50 (m-NTPDase3) [µM] | Ki (m-NTPDase2) [µM] | IC50 (m-NTPDase2) [µM] | Compound
38 | 42 | 31 | – | – | – | – | – | – | O=C1Nc2ccccc2/C1=N/NC(=S)Nc1ccccc1 [8a, (Z)-2-(2-oxoindolin-3-ylidene)-N-phenylhydrazine-1-carbothioamide]
– | 34 | 32 | 0.04 | 4.14 ± 0.13 | – | – | – | – | O=C1Nc2ccccc2/C1=N/NC(=S)NCc1ccccc1 [8f, (Z)-N-benzyl-2-(2-oxoindolin-3-ylidene)hydrazine-1-carbothioamide]
29 | 31 | 31 | – | – | – | – | – | – | Cc1ccc(NC(=S)N/N=C2\C(=O)Nc3ccccc32)cc1 [8h, (Z)-2-(2-oxoindolin-3-ylidene)-N-(p-tolyl)hydrazine-1-carbothioamide]
– | – | – | 0.04 | 3.6 ± 0.02 | 0.24 | 2.41 ± 0.15 | 0.41 | 1.5 ± 0.11 | CCNC(=S)N/N=C1\C(=O)Nc2ccccc21 [8m, (Z)-N-ethyl-2-(2-oxoindolin-3-ylidene)hydrazine-1-carbothioamide]
